Assay results as given in US10806142B2, “2-amino-5-ketoxime-pyrimidine derivatives and their use for controlling undesired plant growth” (Bayer CropScience Aktiengesellschaft, priority 2015, dated 2020).

What was measured:
[1] = logp (HCOOH), physicochemical characterization; conditions: HCOOH (formic acid)
Avena fatua = assay: Pre-emergence herbicidal effect; assay type: in vivo; conditions: dosage 320 g a.i./ha
Excerpt: (§1) 1. Pre-Emergence Herbicidal Effect and Crop Plant Compatibility Seeds of monocotyledonous and dicotyledonous weed plants and crop plants are laid out in wood-fiber pots in sandy loam and covered with soil. The compounds of the invention, formulated in the form of wettable powders (WP) or as emulsion concentrates (EC), are then applied to the surface of the covering soil as aqueous suspension or emulsion at a water application rate equating to 600 to 800 L/ha with addition of 0.2% wetting agent. After the treatment, the pots are placed in a greenhouse and kept under good growth conditions for the trial plants. The damage to the trial plants is scored visually after a trial duration of 3 weeks by comparison with untreated controls (herbicidal activity in percent (%): 100% efficacy=the plants have died, 0% efficacy=like control plants). [table]

Cyperus esculentus [2] = assay: Pre-emergence herbicidal effect; assay type: in vivo; conditions: dosage 320 g a.i./ha
Excerpt: as §1

Viola tricolor [3] = assay: Pre-emergence herbicidal effect; assay type: in vivo
Excerpt: as §1

Stellaria media [4] = assay: Pre-emergence herbicidal effect; assay type: in vivo
Excerpt: as §1

Echinochloa crus-galli = assay: Pre-emergence herbicidal effect; assay type: in vivo
Excerpt: as §1

Setaria viridis [5] = assay: Pre-emergence herbicidal effect; assay type: in vivo
Excerpt: as §1

Veronica persica = assay: Pre-emergence herbicidal effect; assay type: in vivo
Excerpt: as §1

Matricaria inodora [6] = assay: Pre-emergence herbicidal effect; assay type: in vivo
Excerpt: as §1

Polygpnum convolvulus [7] = assay: Pre-emergence herbicidal effect; assay type: in vivo
Excerpt: as §1

Amaranthus retroflexus [8] = assay: Pre-emergence herbicidal effect; assay type: in vivo
Excerpt: as §1

Alopecurus myosuroides = assay: Pre-emergence herbicidal effect; assay type: in vivo; conditions: dosage 320 g a.i./ha
Excerpt: as §1

Viola tricolor [9] = assay: Post-emergence herbicidal effect; assay type: in vivo
Procedure: (§2) [table] 2. Post-Emergence Herbicidal Effect and Crop Plant Compatibility Seeds of monocotyledonous and dicotyledonous weed and crop plants are laid out in sandy loam in wood-fiber pots, covered with soil and cultivated in a greenhouse under good growth conditions. 2 to 3 weeks after sowing, the test plants are treated at the one-leaf stage. The compounds of the invention, formulated in the form of wettable powders (WP) or as emulsion concentrates (EC), are then sprayed onto the green parts of the plants as aqueous suspension or emulsion at a water application rate equating to 600 to 800 L/ha with addition of 0.2% wetting agent. After the trial plants have been left to stand in a greenhouse under optimal growth conditions for about 3 weeks, the efficacy of the formulations is scored visually in comparison to untreated controls (herbicidal action in percent (%): 100% efficacy=the plants have died, 0% efficacy=like control plants).

Stellaria media [10] = assay: Post-emergence herbicidal effect; assay type: in vivo; conditions: visual score after about 3 weeks
Procedure: as §2

Setaria viridis [11] = assay: Post-emergence herbicidal effect; assay type: in vivo
Procedure: as §2

Polygpnum convolvulus [12] = assay: Post-emergence herbicidal effect; assay type: in vivo
Procedure: as §2

Ipomoea purpurea = assay: Post-emergence herbicidal effect; assay type: in vivo
Procedure: as §2

Amaranthus retroflexus [13] = assay: Post-emergence herbicidal effect; assay type: in vivo; conditions: visual score after about 3 weeks
Procedure: as §2

Abutilon theophrasti = assay: Post-emergence herbicidal effect; assay type: in vivo; conditions: visual score after about 3 weeks
Procedure: as §2

Matricaria inodora [14] = assay: Post-emergence herbicidal effect; assay type: in vivo; conditions: visual score after about 3 weeks
Procedure: as §2

Cyperus esculentus [15] = assay: Post-emergence herbicidal effect; assay type: in vivo; conditions: dosage 320 g a.i./ha, visual score after about 3 weeks
Procedure: as §2

[16] = dosage 80 g a.i./ha, visual score after about 3 weeks
[17] = dosage 320 g a.i./ha, visual score after about 3 weeks
[18] = dosage cell empty, first line of the compound
[19] = dosage cell empty, second line of the compound

| SMILES | chromatographic logP [1] | Herbicidal activity against VIOTR (Viola tricolor [3]; dosage 80 g a.i./ha) [%] | Herbicidal activity against VIOTR (Viola tricolor [3]; dosage 320 g a.i./ha) [%] | Herbicidal activity against STEME (Stellaria media [4]; dosage 80 g a.i./ha) [%] | Herbicidal activity against STEME (Stellaria media [4]; dosage 320 g a.i./ha) [%] | Herbicidal activity against ECHCG (Echinochloa crus-galli; dosage 320 g a.i./ha) [%] | Herbicidal activity against SETVI (Setaria viridis [5]; dosage 320 g a.i./ha) [%] | Herbicidal activity against VERPE (Veronica persica; dosage 80 g a.i./ha) [%] | Herbicidal activity against VERPE (Veronica persica; dosage 320 g a.i./ha) [%] | Herbicidal activity against MATIN (Matricaria inodora [6]; dosage 80 g a.i./ha) [%] | Herbicidal activity against MATIN (Matricaria inodora [6]; dosage 320 g a.i./ha) [%] | Herbicidal activity against POLCO (Polygpnum convolvulus [7]; dosage 320 g a.i./ha) [%] | Herbicidal activity against AMARE (Amaranthus retroflexus [8]; dosage 80 g a.i./ha) [%] | Herbicidal activity against AMARE (Amaranthus retroflexus [8]; dosage 320 g a.i./ha) [%] | Herbicidal activity against VIOTR (Viola tricolor [9]; [16]) [%] | Herbicidal activity against VIOTR (Viola tricolor [9]; [17]) [%] | Herbicidal activity against STEME (Stellaria media [10]; dosage 80 g a.i./ha) [%] | Herbicidal activity against STEME (Stellaria media [10]; dosage 320 g a.i./ha) [%] | Herbicidal activity against POLCO (Polygpnum convolvulus [12]; [16]) [%] | Herbicidal activity against POLCO (Polygpnum convolvulus [12]; [17]) [%] | further results |
| --- | --- | --- | --- | --- | --- | --- | --- | --- | --- | --- | --- | --- | --- | --- | --- | --- | --- | --- | --- | --- | --- |
| CC/C(=N/O)c1cnc(N[C@H]2c3cc(C)ccc3C[C@@H]2C)nc1CC [Compound 1.40b, N-[(1R,2S)-2,6-dimethyl-2,3-dihydro-1H-inden-1-yl]-4-ethyl-5-[(1Z)-N-hydroxypropanimidoyl]pyrimidine-2-amine] | 3.86 | 100 | 100 | 90 | 100 | 100 | 100 | 100 | 100 | 90 | 100 | 100 | 100 | 100 | 90 | 90 | 70 | 80 | 80 | 80 | Herbicidal activity against AVEFA (Avena fatua): 90%; Herbicidal activity against CYPES (Cyperus esculentus [2]): 100%; Herbicidal activity against ECHCG (Echinochloa crus-galli; dosage 80 g a.i./ha): 90%; Herbicidal activity against SETVI (Setaria viridis [5]; dosage 80 g a.i./ha): 100%; Herbicidal activity against POLCO (Polygpnum convolvulus [7]; dosage 80 g a.i./ha): 100%; Herbicidal activity against ALOMY (Alopecurus myosuroides): 80%; Herbicidal activity against SETVI (Setaria viridis [11]; [17]): 90%; Herbicidal activity against PHBPU (Ipomoea purpurea; [16]): 80%; Herbicidal activity against PHBPU (Ipomoea purpurea; [17]): 90%; Herbicidal activity against AMARE (Amaranthus retroflexus [13]; dosage 80 g a.i./ha): 90%; Herbicidal activity against AMARE (Amaranthus retroflexus [13]; dosage 320 g a.i./ha): 100% |
| CCCC/C(=N\O)c1cnc(N[C@H]2c3cc(C)ccc3C[C@@H]2C)nc1 [Compound 1.85a, N-[(1R,2S)-2,6-Dimethyl-2,3-dihydro-1H-inden-1-yl]-5-[(1E)-N-hydroxypentanimidoyl]pyrimidine-2-amine] | 3.86 | 100 | 100 | 100 | 100 | 100 | 100 | 100 | 100 |  | 100 |  |  | 80 | 80 | 90 | 80 | 90 | 80 | 80 | Herbicidal activity against ABUTH (Abutilon theophrasti; dosage 80 g a.i./ha): 80%; Herbicidal activity against ABUTH (Abutilon theophrasti; dosage 320 g a.i./ha): 100% |
| CCCC/C(=N/O)c1cnc(N[C@H]2c3cc(C)ccc3C[C@@H]2C)nc1 [Compound 1.85b, N-[(1R,2S)-2,6-dimethyl-2,3-dihydro-1H-inden-1-yl]-5-[(1Z)-N-hydroxypentanimidoyl]pyrimidine-2-amine] | 4.1 | 100 | 100 | 100 | 100 |  |  | 100 | 100 |  | 80 | 90 |  | 80 |  |  |  |  |  |  |  |
| C/C(=N\Oc1ccc(F)cc1)c1cnc(N[C@H]2c3cc(C)ccc3C[C@@H]2C)nc1 [Compound 1.101a, N-[(1R,2S)-2,6-Dimethyl-2,3-dihydro-1H-inden-1-yl]-5-[(1E)-N-(4-fluorophenoxy)ethanimidoyl]pyrimidine-2-amine] | 5.34 |  | 100 | 100 | 100 | 100 |  | 100 | 100 | 80 | 100 |  | 90 | 100 | 90 | 90 | 90 | 90 | 100 | 100 | Herbicidal activity against CYPES (Cyperus esculentus [2]): 90%; Herbicidal activity against POLCO (Polygpnum convolvulus [7]; dosage 80 g a.i./ha): 90%; Herbicidal activity against SETVI (Setaria viridis [11]; [17]): 80%; Herbicidal activity against ABUTH (Abutilon theophrasti; dosage 80 g a.i./ha): 90%; Herbicidal activity against ABUTH (Abutilon theophrasti; dosage 320 g a.i./ha): 100% |
| CCO/N=C(\C)c1cnc(N[C@H]2c3cc(C)ccc3C[C@@H]2C)nc1 [Compound 1.103a, N-[(1R,2S)-2,6-Dimethyl-2,3-dihydro-1H-inden-1-yl]-5-[(1E)-N-ethoxyethanimidoyl]pyrimidine-2-amine] |  | 100 | 100 | 100 | 100 | 100 | 100 |  |  | 90 | 100 | 100 | 100 | 100 | 90 | 90 | 90 | 90 | 90 | 100 | Herbicidal activity against MATIN (Matricaria inodora [14]; dosage 320 g a.i./ha): 80%; Herbicidal activity against PHBPU (Ipomoea purpurea; [16]): 80%; Herbicidal activity against PHBPU (Ipomoea purpurea; [17]): 90%; Herbicidal activity against ABUTH (Abutilon theophrasti; dosage 320 g a.i./ha): 90% |
| CCO/N=C(/C)c1cnc(N[C@H]2c3cc(C)ccc3C[C@@H]2C)nc1 [Compound 1.103b, N-[(1R,2S)-2,6-dimethyl-2,3-dihydro-1H-inden-1-yl]-5-[(1Z)-N-ethoxyethanimidoyl]pyrimidine-2-amine] | 4.92 | 100 | 100 | 100 | 100 | 100 | 90 | 100 | 100 | 100 | 100 | 100 | 80 | 100 | 90 | 100 | 80 | 90 | 90 | 100 | Herbicidal activity against POLCO (Polygpnum convolvulus [7]; dosage 80 g a.i./ha): 100%; Herbicidal activity against CYPES (Cyperus esculentus [15]): 80%; Herbicidal activity against SETVI (Setaria viridis [11]; [17]): 80%; Herbicidal activity against MATIN (Matricaria inodora [14]; dosage 80 g a.i./ha): 80%; Herbicidal activity against MATIN (Matricaria inodora [14]; dosage 320 g a.i./ha): 100%; Herbicidal activity against PHBPU (Ipomoea purpurea; [17]): 90%; Herbicidal activity against ABUTH (Abutilon theophrasti; dosage 80 g a.i./ha): 90%; Herbicidal activity against ABUTH (Abutilon theophrasti; dosage 320 g a.i./ha): 100% |
| CC/C(=N/OCc1ccc(Cl)cc1)c1cnc(N[C@H]2c3cc(C)ccc3C[C@@H]2C)nc1CC [Compound 1.115b, 5-{(1Z)-N-[(4-Chlorobenzyl)oxy]propanimidoyl}-N-[(1R,2S)-2,6-dimethyl-2,3-dihydro-1H-inden-1-yl]-4-ethylpyrimidine-2-amine] |  | 90 | 100 |  | 100 |  |  | 100 | 100 |  | 90 |  |  |  |  |  |  |  |  |  | Herbicidal activity against VIOTR (Viola tricolor [9]; [18]): 90%; Herbicidal activity against VIOTR (Viola tricolor [9]; [19]): 80%; Herbicidal activity against SETVI (Setaria viridis [11]; [18]): 100%; Herbicidal activity against SETVI (Setaria viridis [11]; [19]): 80%; Herbicidal activity against POLCO (Polygpnum convolvulus [12]; [18]): 80%; Herbicidal activity against PHBPU (Ipomoea purpurea; [18]): 90% |
